Measured values published in publication PMC5218480 (PLoS ONE, 2017).

Test system: MV-4-11 cells
Assay: Gene expression microarray analysis (Affymetrix PrimeView) and GSEA
Type: cell-based, human
Parameters: RFU PODN (11730768_x_at) / Fold change /veh PODN (11730768_x_at) / RFU LINC00158 (11744669_a_at) / Fold change /veh LINC00158 (11744669_a_at) / RFU DUSP10 (11751237_a_at) / Fold change /veh DUSP10 (11751237_a_at) / RFU ID3 (11757404_x_at) / Fold change /veh ID3 (11757404_x_at) / RFU PLEKHG5 (11737974_s_at) / Fold change /veh PLEKHG5 (11737974_s_at) / RFU LRRC4B (11730491_at) / Fold change /veh LRRC4B (11730491_at) / RFU GIMAP4 (11747438_a_at) / Fold change /veh GIMAP4 (11747438_a_at) / RFU KRT8 (11758183_x_at) / Fold change /veh KRT8 (11758183_x_at) / RFU CNN1 (11734310_a_at) / Fold change /veh CNN1 (11734310_a_at) / RFU VPS37D (11726825_at) / Fold change /veh VPS37D (11726825_at) / RFU C10orf10 (11716522_x_at) / Fold change /veh C10orf10 (11716522_x_at) / RFU KIR2DL2 /// KIR2DL4 /// KIR2DL5A /// KIR2DL5B /// KIR2DS1 /// KIR2DS2 /// KIR2DS3 /// KIR2DS4 /// KIR3DL3 /// KIR3DL3 /// KIR3DS1 (11738374_at) / Fold change /veh KIR2DL2 /// KIR2DL4 /// KIR2DL5A /// KIR2DL5B /// KIR2DS1 /// KIR2DS2 /// KIR2DS3 /// KIR2DS4 /// KIR3DL3 /// KIR3DL3 /// KIR3DS1 (11738374_at) / RFU C1QL1 (11718748_at) / Fold change /veh C1QL1 (11718748_at) / RFU TMPRSS4 (11747572_a_at) / Fold change /veh TMPRSS4 (11747572_a_at) / RFU HAMP (11756126_x_at) / Fold change /veh HAMP (11756126_x_at) / RFU RNFT2 (11725882_a_at) / Fold change /veh RNFT2 (11725882_a_at) / RFU NR4A2 (11747474_a_at) / Fold change /veh NR4A2 (11747474_a_at) / RFU ABCC12 (11746883_a_at) / Fold change /veh ABCC12 (11746883_a_at) / RFU TMEM136 (11760407_x_at) / Fold change /veh TMEM136 (11760407_x_at) / RFU CLDN22 /// WWC2 (11732394_at) / Fold change /veh CLDN22 /// WWC2 (11732394_at) / RFU HLA-DPB1 (11760878_x_at) / Fold change /veh HLA-DPB1 (11760878_x_at) / RFU SPINT1 (11716480_a_at) / Fold change /veh SPINT1 (11716480_a_at) / RFU GAP43 (11754022_s_at) / Fold change /veh GAP43 (11754022_s_at) / RFU A4GNT (11735810_at) / Fold change /veh A4GNT (11735810_at) / RFU PRB3 (11715151_x_at) / Fold change /veh PRB3 (11715151_x_at) / RFU TUBB4B (11761932_at) / Fold change /veh TUBB4B (11761932_at) / RFU CAPN14 (11732068_a_at) / Fold change /veh CAPN14 (11732068_a_at) / RFU TMCC2 (11721928_a_at) / Fold change /veh TMCC2 (11721928_a_at) / RFU IRGQ (11745062_a_at) / Fold change /veh IRGQ (11745062_a_at) / RFU FAM174B (11720279_a_at) / Fold change /veh FAM174B (11720279_a_at) / RFU TMPRSS4 (11748680_a_at) / Fold change /veh TMPRSS4 (11748680_a_at) / RFU FAM212B (11763350_a_at) / Fold change /veh FAM212B (11763350_a_at) / RFU PLEKHG5 (11743358_a_at) / Fold change /veh PLEKHG5 (11743358_a_at) / RFU ZSCAN30 (11745921_a_at) / Fold change /veh ZSCAN30 (11745921_a_at) / RFU CMKLR1 (11741424_a_at) / Fold change /veh CMKLR1 (11741424_a_at) / RFU LOC101060620 /// MAPK8IP1 (11723275_at) / Fold change /veh LOC101060620 /// MAPK8IP1 (11723275_at) / RFU SPTSSB (11747773_x_at) / Fold change /veh SPTSSB (11747773_x_at) / RFU PRSS12 (11739890_at) / Fold change /veh PRSS12 (11739890_at) / RFU BIN1 (11741810_x_at) / Fold change /veh BIN1 (11741810_x_at) / RFU WNT11 (11732464_a_at) / Fold change /veh WNT11 (11732464_a_at) / RFU C10orf10 (11716521_a_at) / Fold change /veh C10orf10 (11716521_a_at) / RFU C5orf56 (11738089_at) / Fold change /veh C5orf56 (11738089_at) / RFU CYB561 (11721691_x_at) / Fold change /veh CYB561 (11721691_x_at) / RFU ANKRD19P (11752326_a_at) / Fold change /veh ANKRD19P (11752326_a_at) / RFU OR2T12 /// OR2T33 /// OR2T8 (11738714_s_at) / Fold change /veh OR2T12 /// OR2T33 /// OR2T8 (11738714_s_at) / RFU VCAN (11748164_a_at) / Fold change /veh VCAN (11748164_a_at) / RFU JSRP1 (11732532_at) / Fold change /veh JSRP1 (11732532_at) / RFU KRTAP10-11 (11738290_x_at) / Fold change /veh KRTAP10-11 (11738290_x_at) / RFU MYO3A (11730013_a_at) / Fold change /veh MYO3A (11730013_a_at) / RFU EBF3 (11725865_a_at) / Fold change /veh EBF3 (11725865_a_at) / RFU CAMK2N1 (11719241_x_at) / Fold change /veh CAMK2N1 (11719241_x_at) / RFU C5orf56 (11738088_a_at) / Fold change /veh C5orf56 (11738088_a_at) / RFU OLFML3 (11715873_a_at) / Fold change /veh OLFML3 (11715873_a_at) / RFU LOC100653217 /// NTM (11731650_a_at) / Fold change /veh LOC100653217 /// NTM (11731650_a_at) / RFU MAPK11 (11762145_a_at) / Fold change /veh MAPK11 (11762145_a_at) / RFU FIZ1 (11724087_x_at) / Fold change /veh FIZ1 (11724087_x_at) / RFU OASL (11726364_x_at) / Fold change /veh OASL (11726364_x_at) / RFU SOX15 (11748057_x_at) / Fold change /veh SOX15 (11748057_x_at) / RFU CD79A (11719716_a_at) / Fold change /veh CD79A (11719716_a_at) / RFU HIST1H1D (11736915_at) / Fold change /veh HIST1H1D (11736915_at) / RFU CASKIN2 (11723855_a_at) / Fold change /veh CASKIN2 (11723855_a_at) / RFU LOC730098 (11760151_x_at) / Fold change /veh LOC730098 (11760151_x_at) / RFU OR4N2 (11742367_at) / Fold change /veh OR4N2 (11742367_at) / RFU PRRT2 (11749266_a_at) / Fold change /veh PRRT2 (11749266_a_at) / RFU SNX32 (11753110_a_at) / Fold change /veh SNX32 (11753110_a_at) / RFU CDHR5 (11726645_a_at) / Fold change /veh CDHR5 (11726645_a_at) / RFU RCAN1 (11760418_a_at) / Fold change /veh RCAN1 (11760418_a_at) / RFU FAM167A (11723789_a_at) / Fold change /veh FAM167A (11723789_a_at) / RFU FAM26E (11764081_at) / Fold change /veh FAM26E (11764081_at) / RFU ISYNA1 (11749810_s_at) / Fold change /veh ISYNA1 (11749810_s_at) / RFU ACY1 (11761880_at) / Fold change /veh ACY1 (11761880_at) / RFU 11764098_at / Fold change /veh 11764098_at / RFU SAMD14 (11745864_x_at) / Fold change /veh SAMD14 (11745864_x_at) / RFU NPB (11741838_a_at) / Fold change /veh NPB (11741838_a_at) / RFU TMPRSS6 (11731388_a_at) / Fold change /veh TMPRSS6 (11731388_a_at) / RFU KRTAP10-2 (11738614_at) / Fold change /veh KRTAP10-2 (11738614_at) / RFU ARHGAP8 /// PRR5-ARHGAP8 (11727945_x_at) / Fold change /veh ARHGAP8 /// PRR5-ARHGAP8 (11727945_x_at) / RFU KRTAP5-7 /// NADSYN1 (11734609_at) / Fold change /veh KRTAP5-7 /// NADSYN1 (11734609_at) / RFU RASL12 (11751679_a_at) / Fold change /veh RASL12 (11751679_a_at) / RFU CDKN2B (11736163_a_at) / Fold change /veh CDKN2B (11736163_a_at) / RFU PRF1 (11729649_at) / Fold change /veh PRF1 (11729649_at) / RFU, ZNF638 /// ZNF638-IT1 / Fold change vs veh, ZNF638 /// ZNF638-IT1 / RFU, PANK3 / Fold change vs veh, PANK3 / RFU, SH3YL1 / Fold change vs veh, SH3YL1 / RFU, ZEB2 / Fold change vs veh, ZEB2 / RFU, NRIP1 / Fold change vs veh, NRIP1 / RFU, PTTG1IP / Fold change vs veh, PTTG1IP / RFU, CAPN2 / Fold change vs veh, CAPN2 / RFU, MED14 / Fold change vs veh, MED14 / RFU, SNORA58 / Fold change vs veh, SNORA58 / RFU, C1orf63 / Fold change vs veh, C1orf63 / RFU, LRRFIP1 / Fold change vs veh, LRRFIP1 / RFU, NDUFAF7 / Fold change vs veh, NDUFAF7 / RFU, SLC12A2 / Fold change vs veh, SLC12A2 / RFU, IBTK / Fold change vs veh, IBTK / RFU, ESF1 / Fold change vs veh, ESF1 / Fold change vs veh, TMEM50B / RFU, TAOK1 / Fold change vs veh, TAOK1 / RFU, ACBD3 / Fold change vs veh, ACBD3 / RFU, TMA16 / Fold change vs veh, TMA16 / RFU, RWDD3 / Fold change vs veh, RWDD3 / RFU, BCAT1 / Fold change vs veh, BCAT1 / RFU, EDEM3 / Fold change vs veh, EDEM3 / RFU, TMEM33 / Fold change vs veh, TMEM33 / RFU, WDR75 / Fold change vs veh, WDR75 / RFU, AHCTF1 / Fold change vs veh, AHCTF1 / RFU, TFRC / Fold change vs veh, TFRC / RFU, ZDHHC17 / Fold change vs veh, ZDHHC17 / RFU, NOM1 / Fold change vs veh, NOM1 / RFU, ARL8B / Fold change vs veh, ARL8B / RFU, ZBTB11 / Fold change vs veh, ZBTB11 / RFU, TAMM41 / Fold change vs veh, TAMM41 / RFU, KIAA1704 /// LOC100996395 / Fold change vs veh, KIAA1704 /// LOC100996395 / RFU, ING1 / Fold change vs veh, ING1 / RFU, TRMT61B / Fold change vs veh, TRMT61B / RFU, FUBP3 / Fold change vs veh, FUBP3 / RFU, TP53 / Fold change vs veh, TP53 / RFU, TNKS2 / Fold change vs veh, TNKS2 / RFU, ZFP14 / Fold change vs veh, ZFP14 / RFU, ACTR2 / Fold change vs veh, ACTR2 / RFU, PPP3R1 / Fold change vs veh, PPP3R1 / RFU, PIK3R1 / Fold change vs veh, PIK3R1 / RFU, HNRNPA1 / Fold change vs veh, HNRNPA1 / RFU, RNF170 / Fold change vs veh, RNF170 / RFU, ZNF28 / Fold change vs veh, ZNF28 / RFU, RNGTT / Fold change vs veh, RNGTT / RFU, OGT / Fold change vs veh, OGT / RFU, BRD1 / Fold change vs veh, BRD1 / RFU, MARS / Fold change vs veh, MARS / RFU, ZNF655 / Fold change vs veh, ZNF655 / RFU, FAHD1 / Fold change vs veh, FAHD1 / RFU, BDP1 / Fold change vs veh, BDP1 / RFU, LRRCC1 / Fold change vs veh, LRRCC1 / RFU, ARID1A / Fold change vs veh, ARID1A / RFU, ZNF146 / Fold change vs veh, ZNF146 / RFU, ZNF330 / Fold change vs veh, ZNF330 / RFU, GPN3 / Fold change vs veh, GPN3 / RFU, C9orf123 / Fold change vs veh, C9orf123 / RFU, N4BP2L2 / Fold change vs veh, N4BP2L2 / RFU, ARFIP1 / Fold change vs veh, ARFIP1 / RFU, FAM179B / Fold change vs veh, FAM179B / RFU, BCL10 / Fold change vs veh, BCL10 / RFU, UHRF1BP1L / Fold change vs veh, UHRF1BP1L / RFU, BET1 / Fold change vs veh, BET1 / RFU, CNOT2 / Fold change vs veh, CNOT2 / RFU, ZNF268 / Fold change vs veh, ZNF268 / Fold change vs veh, ZNF507 / RFU, DGCR2 / Fold change vs veh, DGCR2 / RFU, WDSUB1 / Fold change vs veh, WDSUB1 / Fold change vs veh, HSP90B1 /// MIR3652 / RFU, ADSS / Fold change vs veh, ADSS / RFU, GK / Fold change vs veh, GK / RFU, ZNF148 / Fold change vs veh, ZNF148 / RFU, TAF9 / Fold change vs veh, TAF9 / RFU, SLC1A5 / Fold change vs veh, SLC1A5 / RFU, SLMO2 / Fold change vs veh, SLMO2 / RFU, ABCC4 / Fold change vs veh, ABCC4 / RFU, LOC101060439 /// RAP1B / Fold change vs veh, LOC101060439 /// RAP1B / RFU, RFX7 / Fold change vs veh, RFX7 / RFU, GTPBP10 / Fold change vs veh, GTPBP10 / RFU, CNEP1R1 / Fold change vs veh, CNEP1R1 / RFU, BIVM-ERCC5 /// ERCC5 / Fold change vs veh, BIVM-ERCC5 /// ERCC5 / RFU, ILF3 / Fold change vs veh, ILF3 / RFU 11762660_at / Fold change /veh 11762660_at / RFU VCAN (11757783_s_at) / Fold change /veh VCAN (11757783_s_at) / RFU DDX43 (11728927_at) / Fold change /veh DDX43 (11728927_at) / RFU KRT8 (11758188_x_at) / Fold change /veh KRT8 (11758188_x_at) / RFU NKD1 (11759106_at) / Fold change /veh NKD1 (11759106_at) / RFU SRD5A1 (11742802_a_at) / Fold change /veh SRD5A1 (11742802_a_at) / RFU TPSAB1 /// TPSB2 (11721975_s_at) / Fold change /veh TPSAB1 /// TPSB2 (11721975_s_at) / RFU GSTM3 (11746129_a_at) / Fold change /veh GSTM3 (11746129_a_at) / RFU IL23R (11737362_x_at) / Fold change /veh IL23R (11737362_x_at) / RFU TMEM51 (11727254_a_at) / Fold change /veh TMEM51 (11727254_a_at) / RFU PIWIL2 (11732686_x_at) / Fold change /veh PIWIL2 (11732686_x_at) / RFU ORM1 (11744905_x_at) / Fold change /veh ORM1 (11744905_x_at) / RFU CCDC152 (11743942_at) / Fold change /veh CCDC152 (11743942_at) / RFU ECM1 (11717891_a_at) / Fold change /veh ECM1 (11717891_a_at) / RFU IL23R (11748794_a_at) / Fold change /veh IL23R (11748794_a_at) / RFU TNFAIP8L3 (11732012_x_at) / Fold change /veh TNFAIP8L3 (11732012_x_at) / RFU MBOAT4 (11741988_at) / Fold change /veh MBOAT4 (11741988_at) / RFU 11764193_at / Fold change /veh 11764193_at / RFU TMEM53 (11763286_at) / Fold change /veh TMEM53 (11763286_at) / RFU MAGEB2 (11727129_at) / Fold change /veh MAGEB2 (11727129_at) / RFU TMEM200A (11744735_a_at) / Fold change /veh TMEM200A (11744735_a_at) / RFU CCDC152 (11751479_a_at) / Fold change /veh CCDC152 (11751479_a_at) / RFU FAM211A (11726209_a_at) / Fold change /veh FAM211A (11726209_a_at) / RFU RGS16 (11746705_a_at) / Fold change /veh RGS16 (11746705_a_at) / RFU VCAN (11755009_s_at) / Fold change /veh VCAN (11755009_s_at) / RFU RHOB (11743442_s_at) / Fold change /veh RHOB (11743442_s_at) / RFU RGS16 (11720943_a_at) / Fold change /veh RGS16 (11720943_a_at) / RFU RGS16 (11720944_at) / Fold change /veh RGS16 (11720944_at) / RFU, VPS4B / Fold change vs veh, VPS4B / RFU, CREB1 / Fold change vs veh, CREB1 / RFU, DNAJC13 / Fold change vs veh, DNAJC13 / RFU, GNAQ / Fold change vs veh, GNAQ / RFU, CDK5R1 / Fold change vs veh, CDK5R1 / RFU, ZRANB3 / Fold change vs veh, ZRANB3 / RFU, CUL4A / Fold change vs veh, CUL4A / RFU, CCNY / Fold change vs veh, CCNY / RFU, UFL1 / Fold change vs veh, UFL1 / RFU, COG3 / Fold change vs veh, COG3 / RFU, DIAPH2 / Fold change vs veh, DIAPH2 / RFU, SKA2 / Fold change vs veh, SKA2 / RFU, AFF3 / Fold change vs veh, AFF3 / RFU, LMF1 / Fold change vs veh, LMF1 / RFU, IPO11 / Fold change vs veh, IPO11 / RFU, DFFB / Fold change vs veh, DFFB / RFU, FOXP1 / Fold change vs veh, FOXP1 / RFU, CARD8 / Fold change vs veh, CARD8 / RFU, STRN3 / Fold change vs veh, STRN3 / RFU, ADK / Fold change vs veh, ADK / RFU, RASSF2 / Fold change vs veh, RASSF2 / RFU, WIPF1 / Fold change vs veh, WIPF1 / RFU, LARP1B / Fold change vs veh, LARP1B / RFU, RASA1 / Fold change vs veh, RASA1 / RFU, RB1 / Fold change vs veh, RB1 / RFU, PPFIA1 / Fold change vs veh, PPFIA1 / RFU, MAT2A / Fold change vs veh, MAT2A / RFU, CCT5 / Fold change vs veh, CCT5 / RFU, WDR92 / Fold change vs veh, WDR92 / RFU, CUX1 / Fold change vs veh, CUX1 / RFU, TTC7A / Fold change vs veh, TTC7A / RFU, TMEM135 / Fold change vs veh, TMEM135 / RFU, DEPTOR / Fold change vs veh, DEPTOR / RFU, CPM / Fold change vs veh, CPM / RFU, DNAJB6 / Fold change vs veh, DNAJB6 / RFU, CACNA2D3 / Fold change vs veh, CACNA2D3 / RFU, DTX4 / Fold change vs veh, DTX4 / RFU, TFCP2 / Fold change vs veh, TFCP2 / RFU, GMCL1 /// GMCL1P1 / Fold change vs veh, GMCL1 /// GMCL1P1 / RFU, AEBP2 / Fold change vs veh, AEBP2 / RFU, SNHG1 /// SNORD22 /// SNORD25 /// SNORD26 /// SNORD27 /// SNORD28 /// SNORD29 /// SNORD31 / Fold change vs veh, SNHG1 /// SNORD22 /// SNORD25 /// SNORD26 /// SNORD27 /// SNORD28 /// SNORD29 /// SNORD31 / Fold change (Aza/veh), C12orf56 (ProbeSet 11735607_a_at) / Fold change (ACY-1035/veh), C12orf56 (ProbeSet 11735607_a_at) / Fold change (Aza/veh), FGFR1OP (ProbeSet 11751329_s_at) / Fold change (ACY-1035/veh), FGFR1OP (ProbeSet 11751329_s_at) / Fold change (Aza/veh), VPS36 (ProbeSet 11739960_a_at) / Fold change (ACY-1035/veh), VPS36 (ProbeSet 11739960_a_at) / RFU SYPL1 (11715823_x_at) / Fold change /veh SYPL1 (11715823_x_at) / RFU IGFBP7 (11715501_s_at) / Fold change /veh IGFBP7 (11715501_s_at) / RFU REEP3 (11722064_at) / Fold change /veh REEP3 (11722064_at) / RFU IGLL1 (11728026_x_at) / Fold change /veh IGLL1 (11728026_x_at): dose or concentration left out as unconfirmed
Conditions: ProbeSet 11755070_a_at; LIST D

In the case of Nc1ccc(-c2cccs2)cc1NC(=O)c1ccc2c(c1)cc(C1CC1)n2CCN1CCOCC1 [ACY-1035], the “Fold change vs veh, CARD8” value is reported as 0.85.
